In US7045146B2, “Templating of solid particles by polymer multilayers” (Max-Planck-Gesellschaft zur Forderung der Wissenschaften …, priority 2000, dated 2006):

Assays:
Assay type in all cases: physicochemical
[1] = Microelectrophoresis: zeta-potential of coated organic microcrystals
Experimental: The layer-by-layer assembly of polyelectrolytes onto FDA or PYR microcrystals was carried out as follows: 50 mg of finely milled core particles (FDA or PYR) were first thoroughly mixed with 12 mL of 0.2–0.4 wt % of the dispersing agent (ionic surfactant, lipid or charged polymer). Crystalline fluorescein diacetate or pyrene can be milled to fine particles using e.g. a mortar and pestle. However, also advanced ball milling procedures can be used.
The crystals were suspended by their immediate sonication for 5 min. The suspension was allowed to stand for 30 min, thus allowing the larger crystals to sediment, or gently centrifuged. The turbid white supernatant was then extracted, centrifuged and washed several times, and finally resuspended in water.
The resulting microcrystal particles were then layer-by-layer coated with PSS and PAH.^18 When positively charged surfactants or DPPC were used as the first layer, 1 mL of PSS solution (5 mg mL^−1, containing 0.5 M NaCl) was added first. PAH solution (1 mL of 5 mg mL^−1, containing 0.5 M NaCl) was added first when PSS or SDS were adsorbed onto the microcrystals. After an adsorption time of 15 min for PAH or PSS adsorption, the suspension was centrifuged at 3000 g for 5 min. The supernatant was then removed and three cycles of water washing and redispersing were applied to remove the excess unadsorbed polyelectrolyte in solution. Subsequent polyelectrolyte layers, bearing an opposite charge to that already adsorbed on the particle, were deposited in identical fashion to produce multilayer-coated microcrystals. In some cases, the fluorescently labeled polyelectrolyte, PAH-FITC, was applied (as a 2 mg mL^−1 solution containing 0.5 M NaCl) to form a fluorescent layer on the microcrystal surface.
The microelectrophoretic mobility of coated organic microcrystals was measured with a malvern Zetasizer 4 by taking the average of 5 measurements at the stationary level. The mobilities (μ) were converted to the electrophoretic potentials (ζ) using the Smoluchowski relation ζ=μη/ε, where η and ε are the viscosity and permittivity of the solution, respectively.^25 All measurements were performed on microcrystals re-dispersed in air-equilibrated pure water (pH ˜5.6).

[2] = Release experiments: removal of the microcrystal core by ethanol, fluorescence of supernatant; conditions: control without polyelectrolyte multilayer
Experimental: Direct proof that a polymer multilayer cage encapsulated the microcrystals was obtained by removing the templated core. The release behaviour of the pyrene and fluoresceine diacetate molecules, from dissolution of the core templates, through the polymer capsule wall can be investigated by using fluorescence spectroscopy. Following centrifugation of the coated microcrystal suspensions that were exposed to ethanol, the supernatant was assessed for either pyrene or fluoresceine at regular time intervals.
12 mL of solvent (ethanol or ethanol/water mixtures) were dispensed into 15 mL tubes. 0.1 mL of the coated microcrystal suspension of Example 3 was then quickly added to each tube and after defined times (2, 5, 10 min etc.) the suspension was centrifuged at 3000 g for 5 min. A portion of the supernatant was removed and tested for the presence of PYR of FDA by fluorescence. For PYR, the fluorescence emission intensity of the supernatant was measured directly by using an excitation wavelength (λex) of 350 nm and monitoring the emission (λem) at 373 nm. FDA was first hydrolyzed into fluorescein either by treatment with esterase or dilute base prior to fluorescence measurement (λex=492 nm, λem=513 nm). As control experiments, the release characteristics of uncoated particles was also studied as outlined above.

[3] = Solubility in water
[4] = SDS-dispersed crystals, layer No. 2, coating PAH
[5] = SDS-dispersed crystals, layer No. 3, coating PSS
[6] = SDS-dispersed crystals, layer No. 4, coating PAH
[7] = SDS-dispersed crystals, layer No. 5, coating PSS
[8] = SDS-dispersed crystals, layer No. 6, coating PAH-FTTC
[9] = crystals, layer No. 1, coating SDS detergent, pure water pH ~5.6

Row | Structure (SMILES) | Zeta-potential [1, 4] | Zeta-potential [1, 5] | Zeta-potential [1, 6] | Zeta-potential [1, 7] | Zeta-potential [1, 8] | ζ-potential ([1]; crystals exposed to DDDAB (FIG. 2a)) | Zeta-potential [1, 9] | time for removal of core upon addition of ethanol ([2]; DDDAB-dispersed (surfactant-coated) microcrystals) | time for removal of core upon addition of ethanol ([2]; PSS-dispersed (PSS-coated) microcrystals) | ζ-potential ([1]; SDS dispersed crystals (FIG. 2a)) | ζ-potential ([1]; microcrystals dispersed with DPPC (FIG. 2b)) | ζ-potential ([1]; microcrystals exposed to PSS (FIG. 2b)) | solubility in water [3]
1 | c1cc2ccc3cccc4ccc(c1)c2c34 [Pyrene] | +59 mV | −46.5 mV | +54.3 mV | −37.2 mV | +47.3 mV | +50 mV | −68.5 mV | ≤ 30 min | ≤ 30 min | – | – | – | –
2 | CC(=O)Oc1ccc2c(c1)Oc1cc(OC(C)=O)ccc1C21OC(=O)c2ccccc21 [Fluorescein diacetate, fluorescein diacetate] | +42.9 mV | −37.7 mV | +51.5 mV | −42.2 mV | +48.2 mV | – | -85 mV | – | – | −50 mV | +20 mV | −40 mV | very low solubility in water
